Test: Solubility in an organic solvent
Assay type: physicochemical
Settings: 1 μml of compound added to 1 ml solvent, mixed 15 minutes; chloroform for Examples 7 to 8, toluene for Examples 9 to 10 and Comparative Example 1
Method: Solubility of organic silane compounds synthesized in Examples 7 to 10, and 6,8,11,13-tetra(N,N-diphenylamino)pentacene of Comparative Example 1 in an organic solvent was assessed. More particularly, 1 μml of each compound was added to 1 ml of the following organic solvent, and this was mixed for 15 minutes.
Examples 9 to 10 and Comparative Example 1
Each of organic silane compounds of Examples 7 to 10 was dissolved in an organic solvent to obtain a transparent solution.

In the case of `c1ccc(N(c2ccccc2)c2ccc(N(c3ccccc3)c3ccccc3)c3cc4c(N(c5ccccc5)c5ccccc5)c5cc6ccccc6cc5c(N(c5ccccc5)c5ccccc5)c4cc23)cc1` [Comparative Example 1, 6,8,11,13-tetra(N,N-diphenylamino)pentacene], the “Solubility in an organic solvent” value is reported as “only dispersed and not dissolved in an organic solvent”.

Reference: patent US20080207864A1, “Organosilanes, Process For Production of the Same, and Use Thereof” (priority 2004, published 2008)
